Counter-ions that a name gives are not always drawn.
Columns and labels:
HiBit-BRG1 = target: T1, HiBit-BRG1 (Homo sapiens, UniProt P51532); experiment: HiBit-BRG1 cell-based degradation assay (Nano-Glo HiBiT Lytic Detection); settings: HeLa cells expressing HiBit-BRG1 and LgBit, 24 h; for DC50: read-out: BRG1 HiBit Degradation IC50; for Dmax: read-out: BRG1 HiBit Degradation Maximum (%)
T1 construct: expressed in transfected cells
Summary of the method: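 Luminescence from reconstituted NanoBiT luciferase after lytic detection served as read-out of remaining HiBit-BRG1 in stable HeLa cells, which also express LgBit. Cells were seeded at 5000 per well and incubated with compound for 24 h. DMSO and a 2 μM known degrader defined the control range.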

HiBiT-BRM = target: T2, HiBiT-BRM (Homo sapiens, UniProt P51531); experiment: HiBiT-BRM cell-based degradation assay (Nano-Glo HiBiT Lytic Detection); settings: HeLa cells expressing HiBiT-BRM, 24 h; for DC50: read-out: BRM HiBit Degradation IC50
T2 construct: expressed in transfected cells
T2 sequence (P51531 whole entry): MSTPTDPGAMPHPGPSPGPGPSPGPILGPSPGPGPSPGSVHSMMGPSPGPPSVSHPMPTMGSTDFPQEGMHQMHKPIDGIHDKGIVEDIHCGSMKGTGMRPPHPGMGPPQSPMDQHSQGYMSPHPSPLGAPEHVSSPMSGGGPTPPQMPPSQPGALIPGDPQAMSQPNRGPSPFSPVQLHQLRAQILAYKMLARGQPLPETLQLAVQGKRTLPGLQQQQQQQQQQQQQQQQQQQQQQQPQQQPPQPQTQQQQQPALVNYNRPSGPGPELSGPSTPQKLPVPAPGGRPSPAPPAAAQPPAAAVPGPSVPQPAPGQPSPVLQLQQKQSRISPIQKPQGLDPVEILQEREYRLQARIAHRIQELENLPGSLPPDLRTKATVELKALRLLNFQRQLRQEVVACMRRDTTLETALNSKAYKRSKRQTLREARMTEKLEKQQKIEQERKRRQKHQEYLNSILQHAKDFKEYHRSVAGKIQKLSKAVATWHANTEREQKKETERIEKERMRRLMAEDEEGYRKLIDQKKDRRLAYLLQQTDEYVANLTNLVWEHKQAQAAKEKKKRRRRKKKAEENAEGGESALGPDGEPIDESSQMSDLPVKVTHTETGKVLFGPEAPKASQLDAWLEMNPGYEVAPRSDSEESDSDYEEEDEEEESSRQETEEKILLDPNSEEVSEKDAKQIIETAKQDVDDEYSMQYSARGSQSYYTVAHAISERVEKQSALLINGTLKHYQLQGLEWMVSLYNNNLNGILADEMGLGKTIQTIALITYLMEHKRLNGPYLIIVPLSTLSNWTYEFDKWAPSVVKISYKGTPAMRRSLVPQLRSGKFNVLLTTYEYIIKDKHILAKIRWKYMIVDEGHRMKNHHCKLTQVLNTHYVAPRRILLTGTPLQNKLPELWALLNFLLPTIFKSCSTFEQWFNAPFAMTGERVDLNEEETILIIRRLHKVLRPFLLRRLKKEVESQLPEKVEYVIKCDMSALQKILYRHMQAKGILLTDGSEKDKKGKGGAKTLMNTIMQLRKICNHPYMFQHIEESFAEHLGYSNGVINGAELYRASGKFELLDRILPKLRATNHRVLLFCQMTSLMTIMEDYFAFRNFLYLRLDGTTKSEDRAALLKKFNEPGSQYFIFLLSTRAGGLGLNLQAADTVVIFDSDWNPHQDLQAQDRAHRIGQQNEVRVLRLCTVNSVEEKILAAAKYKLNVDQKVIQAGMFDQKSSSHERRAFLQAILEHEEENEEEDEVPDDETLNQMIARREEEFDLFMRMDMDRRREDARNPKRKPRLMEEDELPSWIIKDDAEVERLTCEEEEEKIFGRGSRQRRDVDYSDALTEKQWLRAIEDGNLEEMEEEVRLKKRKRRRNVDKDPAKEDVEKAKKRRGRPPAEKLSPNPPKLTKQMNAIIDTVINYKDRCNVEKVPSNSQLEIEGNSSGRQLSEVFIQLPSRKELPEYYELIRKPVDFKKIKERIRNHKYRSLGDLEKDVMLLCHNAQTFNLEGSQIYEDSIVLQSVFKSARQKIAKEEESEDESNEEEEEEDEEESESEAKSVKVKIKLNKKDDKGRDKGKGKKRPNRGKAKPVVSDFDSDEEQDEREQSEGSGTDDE
Summary of the method: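 HeLa cells stably expressing HiBiT-tagged BRM were treated for 24 h, then lysed with LgBiT-containing Nano-Glo reagent and luminescence read. % degradation scaled between DMSO (high control) and 2 μM reference BRM/BRG1 degrader (low control).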

T1 sequence (P51532 whole entry): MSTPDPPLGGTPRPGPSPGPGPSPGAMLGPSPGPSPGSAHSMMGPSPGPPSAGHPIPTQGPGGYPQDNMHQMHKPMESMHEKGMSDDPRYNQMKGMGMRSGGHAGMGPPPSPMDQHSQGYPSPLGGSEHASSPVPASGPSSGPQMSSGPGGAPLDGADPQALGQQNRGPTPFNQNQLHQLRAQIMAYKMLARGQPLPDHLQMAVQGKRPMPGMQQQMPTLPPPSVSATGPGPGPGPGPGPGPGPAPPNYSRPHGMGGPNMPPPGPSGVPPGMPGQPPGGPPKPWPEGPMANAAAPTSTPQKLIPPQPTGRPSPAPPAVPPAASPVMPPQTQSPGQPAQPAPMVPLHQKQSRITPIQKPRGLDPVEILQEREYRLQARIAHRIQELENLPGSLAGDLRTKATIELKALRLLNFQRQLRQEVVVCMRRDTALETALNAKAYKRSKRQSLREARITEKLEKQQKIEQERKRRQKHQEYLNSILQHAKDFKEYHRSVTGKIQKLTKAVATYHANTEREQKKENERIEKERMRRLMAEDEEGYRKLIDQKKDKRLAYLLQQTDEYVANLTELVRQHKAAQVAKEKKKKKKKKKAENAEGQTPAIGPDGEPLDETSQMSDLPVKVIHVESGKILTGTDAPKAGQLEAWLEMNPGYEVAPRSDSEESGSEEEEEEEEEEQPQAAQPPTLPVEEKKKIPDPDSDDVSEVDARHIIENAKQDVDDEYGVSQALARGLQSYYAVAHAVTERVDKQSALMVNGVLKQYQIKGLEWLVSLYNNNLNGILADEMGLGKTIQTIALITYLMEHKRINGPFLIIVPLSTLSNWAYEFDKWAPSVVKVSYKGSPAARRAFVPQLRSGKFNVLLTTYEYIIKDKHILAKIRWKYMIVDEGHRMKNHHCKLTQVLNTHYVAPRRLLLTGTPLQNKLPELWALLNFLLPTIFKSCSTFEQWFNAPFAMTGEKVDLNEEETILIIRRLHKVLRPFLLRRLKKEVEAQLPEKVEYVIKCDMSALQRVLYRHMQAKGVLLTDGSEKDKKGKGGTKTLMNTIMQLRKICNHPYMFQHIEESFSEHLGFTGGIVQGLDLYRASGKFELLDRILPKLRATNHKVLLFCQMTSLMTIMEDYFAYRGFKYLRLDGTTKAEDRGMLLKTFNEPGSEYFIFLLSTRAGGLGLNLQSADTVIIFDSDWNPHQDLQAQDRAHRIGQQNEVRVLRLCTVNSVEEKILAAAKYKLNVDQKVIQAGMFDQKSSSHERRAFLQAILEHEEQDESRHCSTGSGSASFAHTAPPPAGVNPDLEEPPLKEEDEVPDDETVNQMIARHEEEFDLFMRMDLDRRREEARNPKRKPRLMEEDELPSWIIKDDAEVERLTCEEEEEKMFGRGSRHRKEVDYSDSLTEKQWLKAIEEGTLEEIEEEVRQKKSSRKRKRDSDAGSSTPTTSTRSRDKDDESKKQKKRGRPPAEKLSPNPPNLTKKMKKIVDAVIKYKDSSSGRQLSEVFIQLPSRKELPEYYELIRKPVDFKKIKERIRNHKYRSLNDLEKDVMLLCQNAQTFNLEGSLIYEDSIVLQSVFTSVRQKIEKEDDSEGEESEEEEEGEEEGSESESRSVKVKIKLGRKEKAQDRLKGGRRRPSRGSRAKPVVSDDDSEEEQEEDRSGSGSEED

Compound | DC50 (HiBit-BRG1) | Dmax (HiBit-BRG1) | DC50 (HiBiT-BRM) | BRM HiBit Degradation Maximum (%) (HiBiT-BRM)
Nc1nnc(-c2ccccc2O)cc1OCCc1ccc(CNCCCNc2cccc3c2C(=O)N(C2CCC(=O)NC2=O)C3=O)cc1 (centres unmarked) [Compound 108, 4-[[3-([[4-(2-[[3-amino-6-(2-hydroxyphenyl)pyridazin-4-yl]oxy]ethyl)phenyl]methyl]amino)propyl]amino]-2-(2,6-dioxopiperidin-3-yl)isoindole-1,3-dione, formic acid salt] | > 1000 nM | > 50% | > 10 nM | B (“B” indicates maximum degradation ≥50%)
Nc1nnc(-c2ccccc2O)cc1OCCc1ccc(CNCCNc2cccc3c2C(=O)N(C2CCC(=O)NC2=O)C3=O)cc1 (centres unmarked) [Compound 109, 4-[[2-([[4-(2-[[3-amino-6-(2-hydroxyphenyl)pyridazin-4-yl]oxy]ethyl)phenyl]methyl]amino)ethyl]amino]-2-(2,6-dioxopiperidin-3-yl)isoindole-1,3-dione, formic acid salt] | > 1000 nM | < 50% | > 1000 nM | C (“C” indicates maximum degradation <50%)
Nc1nnc(-c2ccccc2O)cc1OCCc1ccc(CNC(=O)CCNc2cccc3nnn(C4CCC(=O)NC4=O)c(=O)c23)cc1 (centres unmarked) [Compound 111, N-(4-(2-((3-amino-6-(2-hydroxyphenyl)pyridazin-4-yl)oxy)ethyl)benzyl)-3-((3-(2,6-dioxopiperidin-3-yl)-4-oxo-3,4-dihydrobenzo[d][1,2,3]triazin-5-yl)amino)propanamide] | > 1000 nM | < 50% | > 1000 nM | C (“C” indicates maximum degradation <50%)
Nc1nnc(-c2ccccc2O)cc1OCCc1ccc(CNCCCCCNc2cccc3c2C(=O)N(C2CCC(=O)NC2=O)C3=O)cc1 (centres unmarked) [Compound 112, 4-[[5-([[4-(2-[[3-amino-6-(2-hydroxyphenyl)pyridazin-4-yl]oxy]ethyl)phenyl]methyl]amino)pentyl]amino]-2-(2,6-dioxopiperidin-3-yl)isoindole-1,3-dione] | > 1000 nM | > 50% | > 10 nM | B (“B” indicates maximum degradation ≥50%)
CN(CCCCCOc1cccc2c1C(=O)N(C1CCC(=O)NC1=O)C2=O)Cc1ccc(CCOc2cc(-c3ccccc3O)nnc2N)cc1 (centres unmarked) [Compound 113, 4-((5-((4-(2-((3-amino-6-(2-hydroxyphenyl)pyridazin-4-yl)oxy)ethyl)benzyl)(methyl)amino)pentyl)oxy)-2-(2,6-dioxopiperidin-3-yl)isoindoline-1,3-dione] | > 1000 nM | < 50% | > 10 nM | A (“A” indicates maximum degradation ≥75%)
Nc1nnc(-c2ccccc2O)cc1OCCc1ccc(CNCCCC2CN(c3cccc4c3C(=O)N(C3CCC(=O)NC3=O)C4=O)C2)cc1 (centres unmarked) [Compound 114, 4-(3-(3-((4-(2-((3-amino-6-(2-hydroxyphenyl)pyridazin-4-yl)oxy)ethyl)benzyl)amino)propyl)azetidin-1-yl)-2-(2,6-dioxopiperidin-3-yl)isoindoline-1,3-dione] | > 1000 nM | > 50% | > 10 nM | B (“B” indicates maximum degradation ≥50%)
Nc1nnc(-c2ccccc2O)cc1OCCc1ccc(CNCCOc2cccc3c2C(=O)N(C2CCC(=O)NC2=O)C3=O)cc1 (centres unmarked) [Compound 115, 4-[2-([[4-(2-[[3-amino-6-(2-hydroxyphenyl)pyridazin-4-yl]oxy]ethyl)phenyl]methyl]amino)ethoxy]-2-(2,6-dioxopiperidin-3-yl)isoindole-1,3-dione] | > 1000 nM | < 50% | > 1000 nM | C (“C” indicates maximum degradation <50%)
Nc1nnc(-c2ccccc2O)cc1OCCc1ccc(CNCCCCCOc2ccc3c(c2)C(=O)N(C2CCC(=O)NC2=O)C3=O)cc1 (centres unmarked) [Compound 116, 5-((5-((4-(2-((3-amino-6-(2-hydroxyphenyl)pyridazin-4-yl)oxy)ethyl)benzyl)amino)pentyl)oxy)-2-(2,6-dioxopiperidin-3-yl)isoindoline-1,3-dione; diformic acid] | > 1000 nM | < 50% | > 1000 nM | C (“C” indicates maximum degradation <50%)

Continued, in another order:

DC50 (HiBit-BRG1) | Dmax (HiBit-BRG1) | DC50 (HiBiT-BRM) | Compound | BRM HiBit Degradation Maximum (%) (HiBiT-BRM)
> 1000 nM | < 50% | > 1000 nM | Nc1nnc(-c2ccccc2O)cc1N1CCN(CCNC(=O)CCCCCCCCCCNc2ccc3c(c2)C(=O)N(C2CCC(=O)NC2=O)C3=O)CC1 (centres unmarked) [Compound 99, N-(2-[4-[3-amino-6-(2-hydroxyphenyl)pyridazin-4-yl]piperazin-1-yl]ethyl)-11-[[2-(2,6-dioxopiperidin-3-yl)-1,3-dioxo-2,3-dihydro-1H-isoindol-5-yl]amino]undecanamide] | C (“C” indicates maximum degradation <50%)
> 1000 nM | < 50% | > 1000 nM | Cc1ncsc1-c1ccc(CNC(=O)[C@@H]2C[C@@H](O)CN2C(=O)[C@@H](NC(=O)COCCOCCNC(=O)CN2CCN(c3cc(-c4ccccc4O)nnc3N)CC2)C(C)(C)C)cc1 [Compound 100, (2S,4R)-1-[(2S)-2-(2-[2-[2-(2-[4-[3-amino-6-(2-hydroxyphenyl)pyridazin-4-yl]piperazin-1-yl]acetamido)ethoxy]ethoxy]acetamido)-3,3-dimethylbutanoyl]-4-hydroxy-N-[[4-(4-methyl-1,3-thiazol-5-yl)phenyl]methyl]pyrrolidine-2-carboxamide] | C (“C” indicates maximum degradation <50%)
> 1000 nM | < 50% | > 100 nM | Cc1ncsc1-c1ccc(CNC(=O)[C@@H]2C[C@@H](O)CN2C(=O)[C@@H](NC(=O)CCCCCCCCCNC(=O)CN2CCN(c3cc(-c4ccccc4O)nnc3N)CC2)C(C)(C)C)cc1 [Compound 102, (2S,4R)-1-[(2S)-2-[10-(2-[4-[3-amino-6-(2-hydroxyphenyl)pyridazin-4-yl]piperazin-1-yl]acetamido)decanamido]-3,3-dimethylbutanoyl]-4-hydroxy-N-[[4-(4-methyl-1,3-thiazol-5-yl)phenyl]methyl]pyrrolidine-2-carboxamide] | A (“A” indicates maximum degradation ≥75%)
> 1000 nM | < 50% | > 1000 nM | Nc1nnc(-c2ccccc2O)cc1N1CCN(CC(=O)NCCCCNc2ccc3c(c2)C(=O)N(C2CCC(=O)NC2=O)C3=O)CC1 (centres unmarked) [Compound 103, 2-[4-[3-amino-6-(2-hydroxyphenyl)pyridazin-4-yl]piperazin-1-yl]-N-(4-[[2-(2,6-dioxopiperidin-3-yl)-1,3-dioxo-2,3-dihydro-1H-isoindol-5-yl]amino]butyl)acetamide] | C (“C” indicates maximum degradation <50%)
> 1000 nM | < 50% | > 1000 nM | CN(CCNC(=O)COc1cccc2c1C(=O)N(C1CCC(=O)NC1=O)C2=O)CCNC(=O)CN1CCN(c2cc(-c3ccccc3O)nnc2N)CC1 (centres unmarked) [Compound 104, N-(2-[[2-(2-[4-[3-amino-6-(2-hydroxyphenyl)pyridazin-4-yl]piperazin-1-yl]acetamido)ethyl](methyl)amino]ethyl)-2-[[2-(2,6-dioxopiperidin-3-yl)-1,3-dioxo-2,3-dihydro-1H-isoindol-4-yl]oxy]acetamide] | C (“C” indicates maximum degradation <50%)
> 1000 nM | < 50% | > 1000 nM | Cc1ncsc1-c1ccc(CNC(=O)[C@@H]2C[C@H](O)CN2C(=O)[C@@H](NC(=O)CCCCCCCCCNC(=O)c2ccc(CCOc3cc(-c4ccccc4O)nnc3N)cc2)C(C)(C)C)cc1 [Compound 105, (2S,4S)-1-((S)-2-(10-(4-(2-((3-amino-6-(2-hydroxyphenyl)pyridazin-4-yl)oxy)ethyl)benzamido)decanamido)-3,3-dimethylbutanoyl)-4-hydroxy-N-(4-(4-methylthiazol-5-yl)benzyl)pyrrolidine-2-carboxamide] | C (“C” indicates maximum degradation <50%)
> 1000 nM | < 50% | > 1000 nM | Nc1nnc(-c2ccccc2O)cc1OCCc1ccc(CNC(=O)CCCNc2cccc3nnn(C4CCC(=O)NC4=O)c(=O)c23)cc1 (centres unmarked) [Compound 106, N-(4-(2-((3-amino-6-(2-hydroxyphenyl)pyridazin-4-yl)oxy)ethyl)benzyl)-4-((3-(2,6-dioxopiperidin-3-yl)-4-oxo-3,4-dihydrobenzo[d][1,2,3]triazin-5-yl)amino)butanamide] | C (“C” indicates maximum degradation <50%)
> 1000 nM | > 50% | > 1000 nM | Nc1nnc(-c2ccccc2O)cc1OCCc1ccc(CNCCCCNc2cccc3c2C(=O)N(C2CCC(=O)NC2=O)C3=O)cc1 (centres unmarked) [Compound 107, 4-[[4-([[4-(2-[[3-amino-6-(2-hydroxyphenyl)pyridazin-4-yl]oxy]ethyl)phenyl]methyl]amino)butyl]amino]-2-(2,6-dioxopiperidin-3-yl)isoindole-1,3-dione] | C (“C” indicates maximum degradation <50%)
> 100 nM | > 50% | > 10 nM | Nc1nnc(-c2ccccc2O)cc1OCCc1ccc(CNCCN2CCN(c3cccc4c3C(=O)N(C3CCC(=O)NC3=O)C4=O)CC2)cc1 (centres unmarked) [Compound 110, 4-[4-[2-([[4-(2-[[3-amino-6-(2-hydroxyphenyl)pyridazin-4-yl]oxy]ethyl)phenyl]methyl]amino)ethyl]piperazin-1-yl]-2-(2,6-dioxopiperidin-3-yl)isoindole-1,3-dione] | A (“A” indicates maximum degradation ≥75%)

— US20230150974A1 (Foghorn Therapeutics Inc., priority 2020, published 2023)
